In patent publication US7267815B2, “Methods and reagents for the enhancement of virus transduction in the bladder epithelium” (priority 2002, dated 2007):

Experiments:
[1] = test system: SW780+ Luc orthotopic bladder tumor; test: DDM as chemical enhancer prior to Ad.LacZ infection of orthotopic bladder tumor model; assay type: in vivo, NCR nu/nu Mouse; conditions: DDM pretreatment (QQ5 minQ), 15 min Ad.Lac Z, 96 hrs; except dead necrotic tumor cells
Text: In each case, >90% Ad-βgal expression was achieved. Therefore, DDM from either manufacturer is a good candidate for a chemical enhancer for adenovirus infection in mice bladder. Efficacy of Dodecyl-β-D-Maltoside as Chemical Enhancer Prior to Adenovirus Infection of SW780+ Luc Orthotopic Bladder Tumor Model in Mice • Species: Female NCR nu/nu Mouse (Taconic Laboratory)-2/group • Study Design: To show DDM pretreatments enhance Ad.Lac Z infectivity in mice bladder urothelium. To further confirm the enhancer effect on orthotopic tumors, two mice bearing orthotopic SW780 bladder tumors were pretreated with or without DDM (QQ5 minQ) followed by 15 min Ad.Lac Z instillation. The Ad.Lac Z gene expression levels were checked in these tumor cells 4 days post Ad.Lac Z infection. • Dose/Route:
Dodecyl-β-D-Maltoside (Lot#018H7250).
Results: There was a significant difference in Ad-βgal gene expression levels between mice bladders pretreated with DDM and control animals. Without DDM pretreatment, there was very low Ad-βgal gene expression levels in bladder epithelium cells and tumor cells. With DDM pretreatment, nearly 100% of the epithelium cells were transduced with Ad-βgal gene in bladder tumors except those dead necrotic tumor cells. It was concluded that DDM pretreatment enhances Adenovirus infection in orthotopic tumor cells. […]

mice bladder urothelium = test: Effects of different diluents on adenovirus infectivity after DDM pretreatment; assay type: in vivo, Balb/c Mouse; conditions: DDM pretreatment (QQ5 minQ); virus diluted 100 fold with different diluents, 45 min, 1×10^9 vp/dose
Protocol: • Species: Female Balb/c Mouse (Taconic Laboratory)—2/group • Study Design: To test the effects of different diluents on Adenovirus infectivity of mice urothelium followed DDM pretreatment (QQ5 minQ). The virus would be diluted 100 fold with the diluents prior to instillation into mice bladder for 45 min. • Dose/Route:
Dodecyl-β-D-Maltoside (Lot #100K5308).
All the animals had >90% in Ad-βgal gene expression in mice bladder. Adenovirus Dose Titration with Different Chemical Agents Pretreatment on SD Rat Bladder Epithelium • Species: Female Sprague Dawley Rat (Taconic Laboratory)—2/group • Study Design: To test the virus infectivity of rat bladder epithelium with different doses of Adenovirus following the pretreatment with SDS or DDM. This study also explored relationship between bladder volume and residual of SDS or DDM for adenovirus infectivity. • Dose/Route: […]

adenovirus (Ad-LacZ) = test: Study #5: adenovirus stability after incubation with 0.1% SDS or 0.1% DDM (plaque assay); assay type: physicochemical; conditions: 0.1% solution, one hour at 25° C. or 37° C.
Protocol: In this study, adenovirus (Ad-LacZ) preparations (1.0×10^12 vp/ml) were mixed with solutions of SDS or DDM to obtain a mixture of adenovirus and each of these surfactants. […] These samples were incubated at 25° C. or 37° C. for one hour before freezing. They were sent to assay services for plaque assay analysis.

CCCCCCCCCCCCO[C@@H]1O[C@H](CO)[C@@H](O[C@H]2O[C@H](CO)[C@@H](O)[C@H](O)[C@H]2O)[C@H](O)[C@H]1O [n-dodecyl β-D-maltoside, n-dodecyl-β-D-maltoside]
epithelium cells transduced with Ad-βgal gene in bladder tumors [1]: ~100%
Ad-βgal gene expression in mice bladder (mice bladder urothelium): > 90%
effect on adenovirus (in words) (adenovirus (Ad-LacZ)): no adverse effects on adenovirus
